Key:
[1] = test system: Beta*; test: Hybridization with complementary DNA, native gel electrophoresis; assay type: binding; conditions: stoichiometric complementary DNA, temperature annealing, for Beta-SBiB2 the complementary strand is not stated
Excerpt: (§1) Hybridization-driven self-assembly has made DNA a versatile building material for nanoscience. The sequence control over SBiB incorporation in DNA can expand the availability of DNA-initiators as new precursors for the fabrication of hybrid nanomaterials. Towards such an end, the hybridization of a mixed oligonucleotide sequence containing an internal SBiB initiator residue in the middle (Beta-SBiB1) was studied with a stoichiometric amount of complementary DNA followed by temperature annealing. For hybridization experiments, two different complementary strands to Beta-SBiB1 were used: one which was fully complementary to the Beta sequence (Beta*) and another that was fully complementary to the Beta sequence with the additional inclusion of a mismatched T residue opposite the SBiB location within the Beta sequence (Beta*Tmm). Beta*Tmm was used to evaluate if the single T residue opposite the 3 carbons insert of SBiB could reduce the strain during duplex formation.
(§2) Double-stranded DNA preparation and melting curve analysis. Desired single-stranded DNA (Beta or Beta-SBiB) was mixed with a stoichiometric amount of complementary DNA (Beta* or Beta*Tmm) at a final concentration of 20 μM in 1×PBS. The DNA mixture was placed in a heat block at 95° C. for 5 min. Following the heating process, the heat block was turned off and slowly cooled to room temperature (approx. 0.5° C./min). […]

[2] = test system: Beta*Tmm; test: Hybridization with complementary DNA carrying a mismatched T, native gel electrophoresis; assay type: binding; conditions: stoichiometric complementary DNA, temperature annealing
Excerpt: as §1, §2

[3] = Stability assay in 10% FBS (gel electrophoresis of remaining DNA); conditions: 37° C., 5.3 μM; for time until entirely degraded: 10% FBS and 1X PBS

In the case of “Beta-SBiB1: ACG TCG AGC AGT /i/ CAG AGC TGT, i = SBiB residue”, the “hybridization (duplex formation)” value [1] is reported as “successfully hybridize” and the “hybridization (duplex formation)” value [2] is reported as “successfully hybridize”.
Substance “Beta-SBiB3: /i/ ACG TCG AGC AGT /i/ CAG AGC TG /i/ T” has a degradation ([3]; 10% FBS, after 24 hours) of 46%.
For “unmodified Beta DNA: purchased 21-mer DNA, ACGTCGAGCAGTCAGAGCTGT (DNA ACGTCGAGCAGTCAGAGCTGT; unmodified DNA)”, the “time until entirely degraded” value ([3]; in the absence of free pOEOMA) was no more than 12 h and the “time until entirely degraded” value ([3]; in the presence of free pOEOMA in the supernatant) was no more than 12 h.

Reference: patent publication US20260146060A1, “PHOSPHORAMIDITE CONJUGATES AND METHODS OF FORMING SYNTHETIC OLIGONUCLEOTIDES THEREFROM” (CARNEGIE MELLON UNIVERSITY, priority 2022, published 2026)
